Results published in ChEMBL document CHEMBL5338752, “Carbamate JNK3 Inhibitors Show Promise as Effective Treatments for Alzheimer's Disease: In Vivo Studies on Mouse Models” (J Med Chem, 2023).
Calls of active or inactive are those of the source. The calls are words filed in the database; no cut-off is given here.

How the values were obtained:
Neuron [1] = assay: Neuroprotective activity against rat neuron cells assessed as inhibition of Abeta(1-42)-induced cytotoxicity by measuring increase in cell viability at 20 uM incubated for 24 hrs by MTT assay relative to control; type: functional
Neuron [2] = assay: Inhibition of apoptosis in rat cortex neuron cells assessed as prevention of A-beta (1 to 42) induced cleaved caspase-3 formation at 10 to 20 uM measured after 24 hrs by Western blot analysis; type: functional, cell-based; conditions: dose 10-20 µM
Neuron [3] = assay: Inhibition of apoptosis in rat cortex neuron cells assessed as prevention of A-beta (1 to 42) induced cleaved PARP formation at 10 to 20 uM measured after 24 hrs by Western blot analysis; type: functional, cell-based; conditions: dose 10-20 µM
Mus musculus [4] = assay: Anti-alzheimer activity against APP/PS1 dE9 double transgenic mouse model assessed as spontaneous alteration at 30 mg/kg, po administered daily for 2 months and measured after 57 days by Y-maze test (reference value: 40.75+/-2.25%); type: functional; conditions: time 57 day
Mus musculus [5] = assay: Anti-alzheimer activity against triple transgenic mouse alzheimer disease model assessed as escape latency time at 60 mg/kg, po measured upto 5 days by Morris water maze test (reference value: 58.62+/-1.15 sec); type: functional; conditions: time <= 5 day
Mus musculus [6] = assay: Anti-alzheimer activity against APP/PS1 dE9 double transgenic mouse model assessed as time spent in platform quadrant at 60 mg/kg, po administered daily for 2 months and measured after 74 days by Morris water maze test (reference value: 10.50+/-4.15 sec); type: functional; conditions: time 74 day
Mus musculus [7] = assay: Anti-alzheimer activity against triple transgenic mouse alzheimer disease model assessed as escape latency time at 30 mg/kg, po measured upto 5 days by Morris water maze test (reference value: 58.62+/-1.15 sec); type: functional; conditions: time <= 5 day
[8] = Half life in sixteen hrs fasted Sprague-Dawley rat at 3 mg/kg, po measured upto 24 hrs by LC-MS/MS analysis; type: ADME, organism-based; conditions: in vivo
Mus musculus [9] = assay: Anti-alzheimer activity against triple transgenic mouse alzheimer disease model assessed as spontaneous alteration at 60 mg/kg, po administered daily for 2.2 months and measured after 119 days by Y-maze test (reference value: 45.55+/-2.30%); type: functional; conditions: time 119 day
Mus musculus [10] = assay: Anti-alzheimer activity against triple transgenic mouse alzheimer disease model assessed as latency time at 60 mg/kg, po administered daily for 2.2 months and measured after 122 to 123 days by passive avoidance test (reference value: 31.3+/-6.9 sec); type: functional; conditions: time 122-123 day
[11] = target: Mitogen-activated protein kinase 9 (Homo sapiens, UniProt P45984); assay: Inhibition of JNK2 (unknown origin) at 1.0 uM preincubated for 20 mins followed by 33P-ATP addition and measured after 2 hrs by P81 filter binding method relative to control; conditions: time 140.0 min
Chain of Mitogen-activated protein kinase 9 (P45984 whole entry, looked up): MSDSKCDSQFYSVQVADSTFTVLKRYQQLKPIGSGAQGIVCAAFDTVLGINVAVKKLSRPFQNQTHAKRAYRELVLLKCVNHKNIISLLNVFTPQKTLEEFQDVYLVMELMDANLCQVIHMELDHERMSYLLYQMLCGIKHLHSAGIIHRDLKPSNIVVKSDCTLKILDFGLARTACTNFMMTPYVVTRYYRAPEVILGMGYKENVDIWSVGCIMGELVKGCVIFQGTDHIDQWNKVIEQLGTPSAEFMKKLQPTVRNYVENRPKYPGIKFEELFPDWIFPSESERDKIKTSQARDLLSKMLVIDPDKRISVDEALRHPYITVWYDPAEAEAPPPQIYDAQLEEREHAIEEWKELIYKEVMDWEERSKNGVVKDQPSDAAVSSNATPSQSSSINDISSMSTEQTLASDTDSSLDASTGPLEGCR

[12] = target: Mitogen-activated protein kinase 8 (Homo sapiens, UniProt P45983); assay: Inhibition of JNK1 (unknown origin) using ATF2 as substrate incubated for 40 mins in presence of [gamma33P]ATP by scintillation counting analysis
Chain of Mitogen-activated protein kinase 8 (P45983 whole entry): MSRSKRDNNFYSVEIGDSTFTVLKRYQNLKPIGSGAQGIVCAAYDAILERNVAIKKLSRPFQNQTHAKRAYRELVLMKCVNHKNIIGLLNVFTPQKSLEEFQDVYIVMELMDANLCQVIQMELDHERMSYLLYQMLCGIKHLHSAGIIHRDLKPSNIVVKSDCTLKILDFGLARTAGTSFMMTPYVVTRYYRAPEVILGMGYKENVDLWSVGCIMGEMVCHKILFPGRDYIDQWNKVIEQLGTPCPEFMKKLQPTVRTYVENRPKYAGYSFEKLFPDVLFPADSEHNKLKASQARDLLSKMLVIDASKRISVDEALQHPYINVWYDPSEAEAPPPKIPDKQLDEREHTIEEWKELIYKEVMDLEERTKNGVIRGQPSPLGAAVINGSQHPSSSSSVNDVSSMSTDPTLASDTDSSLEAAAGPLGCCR

CNC(=O)Oc1cc(F)c2nc(-c3ccc4ccccc4c3)n(-c3ccnc(N[C@H]4CCCN(C(=O)C5CC5)C4)n3)c2c1
Activity (Neuron [1]): 47.5% | inhibition (Neuron [2]): Active | inhibition (Neuron [3]): Active | Activity (Mus musculus [4]): 50.6% | Time (Mus musculus [5]): 25.72 s | Time (Mus musculus [6]): 21.78 s | Time (Mus musculus [7]): 26.61 s | half-life [8]: 58.2 min | Activity (Mus musculus [9]): 54.62% | Time (Mus musculus [10]): 64.4 s | inhibition [11]: 20% | IC50 [12]: > 10 µM
